These results are taken from US20090281077A1, “Cyclic sulfones useful as mitochondrial sodium-calcium exchangers” (priority 2006, published 2009).

Each structure is given as a SMILES string.

The assay addresses T1, mitochondrial sodium-calcium exchanger (mNCE) (Rattus norvegicus, UniProt Q6AXS0).
T1 construct: from tissue; host or cells: rat whole brain, isolated mitochondria
T1 sequence (Q6AXS0 27-585): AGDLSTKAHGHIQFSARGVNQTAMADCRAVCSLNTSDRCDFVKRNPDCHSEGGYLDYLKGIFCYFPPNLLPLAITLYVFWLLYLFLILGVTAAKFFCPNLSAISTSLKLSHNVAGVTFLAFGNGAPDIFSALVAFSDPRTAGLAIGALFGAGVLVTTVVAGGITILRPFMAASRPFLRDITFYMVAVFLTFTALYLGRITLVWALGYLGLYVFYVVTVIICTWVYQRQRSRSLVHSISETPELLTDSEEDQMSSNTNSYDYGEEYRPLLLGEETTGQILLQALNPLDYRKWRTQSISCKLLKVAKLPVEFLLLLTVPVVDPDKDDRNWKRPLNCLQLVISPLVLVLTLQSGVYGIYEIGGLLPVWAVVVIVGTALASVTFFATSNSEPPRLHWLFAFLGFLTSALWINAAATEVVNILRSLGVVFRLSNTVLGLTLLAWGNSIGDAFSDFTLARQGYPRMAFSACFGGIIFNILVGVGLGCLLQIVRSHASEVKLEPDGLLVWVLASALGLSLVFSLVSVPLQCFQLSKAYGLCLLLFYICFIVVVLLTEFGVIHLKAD
Description: Measurement of the Na-Ca exchanger of rat brain mitochondria (Na-induced Ca-release, Oregon Green fluorescence). The class given is biochemical. To be noted: isolated rat brain mitochondria; Ca-efflux rates induced by 20 mM NaCl; rt. The procedure: The method is adapted from the method of Rosenthal et al. [J. Cereb. Blood Flow Metab., 7, 752-758 (1987)].
MSH+: 225 mM mannitol, 75 mM sucrose, 5 mM Hepes, 0.5 mM EDTA, 1 mg/ml of BSA (essentially free fatty acid free); final pH=7.3.
MSH−: Equal to MSH+, but without EDTA.
Nagarse solution: 5 mg of nagarse (bacterial protease type XXIV from Sigma, St. Louis, USA, catalogue # P-8038) dissolved in 1 ml of MSH+.
Digitonin solution: 10% W/V in DMSO.
The entire procedure is performed on ice. Remove the whole brain from the rat (1 brain=2 g). Add the tissue to cold MSH+in a beaker on ice. Cut the tissue into small pieces using scissors and wash the tissue 2 times with MSH+. Transfer the tissue into a 20 ml Dounce homogenizer and set level to about 9 ml with MSH+. Add 1 ml of freshly made Nagarse solution. Homogenize (6 strokes with a loose and 6 strokes with a tight pestle). […] The protein concentration is determined using the Pierce BCA assay (Pierce, Rockford Ill., USA). […]
In a typical experiment 96-well microtiter plates (flat bottom) are used. […] Distribute in a 96-well plate 5 μl/well of 2 μM ruthenium red [in 120 mM KCl and 20 mM Tris (pH=7.4)] and the compounds (in DMSO) to be analyzed (1 μl/well). […] Measure the Ca-release induced by the addition of Na by monitoring the Oregon Green fluorescence (485 nm and 538 nm monochromators for excitation and emission, respectively). […]

For `O=C1CS(=O)(=O)C(c2ccccc2Cl)c2cc(Cl)ccc2N1` (stereo not shown) [Example 1, 2-Chloro-9-(2-chlorophenyl)-8,8-dioxo-5,7,8,9-tetrahydro-8lambda*6*-thia-5-aza-benzocyclohepten-6-one], the concentration for half-maximal inhibition (IC50) was 3.8 µM.
